No end group written: not given here.
Columns and labels:
[1] = tested on: submucosalmucosa preparations of guinea pig colon; experiment: epithelial secretion (electrogenic chloride secretion), Ussing chamber short circuit currents; assay type: cell-based
Description: Epithelial secretion is tested in submucosalmucosa preparations of guinea pig colon. Using Ussing chamber techniques (Frieling et al., Naunyn Schmiedebergs Arch. Pharmacol. 1999; 359: 71-79) short circuit currents are recorded, and epithelial secretion (electrogenic chloride secretion) is stimulated via cumulative treatment with substance P (0.1 nM up to 10 μM); it triggers secretion (increases in short circuit currents) in a concentration-dependent fashion (pD2=7.50 ).

[2] = tested on: isolated segments of guinea pig ileum; experiment: Substance P-mediated exaggerated peristalsis in organ baths (peristaltic reflex model); assay type: cell-based
Excerpt: Substance P—mediated exaggerated peristalsis is studied in Mayflower organ baths using isolated segments of guinea pig ileum (Holzer et al., J. Pharmacol. Exp. Ther. 1995; 274: 322-328). The lumen of ileal segments is perfused with Krebs-Henseleit solution, and intraluminal pressures are continuously recorded. […] Any wave of peristaltic contractions results in a spike-like increase in intraluminal pressure and causes a partial emptying of fluid from the segment. Pressure thresholds triggering peristaltic contractions are used to quantify the effects of the compound of formula II.

conscious guinea pigs [3] = experiment: restraint stress-induced visceral hypersensitivity, visceromotor response to colorectal distension; assay type: in vivo, guinea pig; conditions: restraint stress-induced colonic hypersensitivity, p<0.05 ANOVA post-hoc Dunnett's test
Description: (§1) In conscious guinea pigs, two experimental paradigms are applied to induce visceral hypersensitivity, i) restraint stress (immobilization of the animals in a tube) and ii) colonic tissue irritation (colonic instillation of acetic acid, 0.6% in saline, 1.5 ml, 2 cm proximal to the anus). Colorectal distension is performed by inflating a balloon to a net pressure (at the colonic wall) of 20 mmHg (26.7 mbar) for 10 minutes before and following induction of visceral hypersensitivity. During the distension period the visceromotor response, i.e. the number and quality of abdominal contractions (body arching and lifting of pelvic structures) are recorded and quantified in a blinded fashion (Al-Chaer et al., Gastroenterology 2000; 119: 1276-1285). Following the performance of baseline colorectal distension protocols, vehicle or the compound of formula II (3 and 10 mg/kg) are dosed orally one hour prior to the second colorectal distensions, which are done after the induction of visceral hypersensitivity. The effects of vehicle and the compound of formula II are assessed in 6-8 animals. […] The compound of formula II reverses the exaggerated behavioural pain responses upon colorectal balloon distensions in both restraint stress-induced and tissue irritation-induced colonic hypersensitivity.

conscious guinea pigs [4] = experiment: colonic tissue irritation (acetic acid)-induced visceral hypersensitivity, visceromotor response to colorectal distension; assay type: in vivo, guinea pig; conditions: p<0.05 ANOVA post-hoc Dunnett's test
Description: as §1

[5] = 3 mg/kg p.o. one hour prior to distension
[6] = 10 mg/kg p.o. one hour prior to distension

Compound | pD2, stimulation of secretion (increases in short circuit currents) ([1]; cumulative treatment 0.1 nM up to 10 μM) | pD2, lowering of pressure thresholds triggering peristaltic contractions ([2]; cumulative application 1 nM up to 30 μM) | reversal of exaggerated behavioural pain responses upon colorectal balloon distension (conscious guinea pigs [3]; [5]) | reversal of exaggerated behavioural pain responses upon colorectal balloon distension (conscious guinea pigs [3]; [6]) | reversal of exaggerated behavioural pain responses upon colorectal balloon distension (conscious guinea pigs [4]; [5]) | reversal of exaggerated behavioural pain responses upon colorectal balloon distension (conscious guinea pigs [4]; [6]) | pA2 (Schild plot analysis), competitive inhibition of substance P-induced electrogenic chloride secretion ([1]; 30 nM, 100 nM and 300 nM) | apparent pA2, competitive inhibition of substance P-evoked exaggerated peristalsis ([2]; 30 nM) | apparent pA2, competitive inhibition of substance P-evoked exaggerated peristalsis ([2]; 100 nM)
substance P: agonist applied cumulatively to evoke exaggerated peristalsis and epithelial chloride secretion (RPKPQQFFGLM; ends and bridges not checked; UniProt P20366 58-68, looked up) [reference compound] | 7.50 | 7.20 | – | – | – | – | – | – | –
CN(C(=O)c1cc(C(F)(F)F)cc(C(F)(F)F)c1)[C@@H](/C=C/C(=O)N[C@@H]1CCCCNC1=O)Cc1ccc(Cl)c(Cl)c1 [compound of formula II, (4R)-4-[N′-methyl-N′-(3,5-bistrifluoromethylbenzoyl)amino]-4-(3,4-dichlorobenzyl)-but-2-enoic acid N-[(R)-epsilon-caprolactam-3-yl]-amide] | – | – | statistically significant | statistically significant | statistically significant | statistically significant | 7.94 | 7.35 | 7.23

— patent US20050203164A1, “Use of acylaminoalkenylene-amide derivatives in functional motility disorders of the viscera” (priority 2002, published 2005)
